Several values for one entry are separate records, joined by “and”; a condition that tells them apart may be missing. Equal values may be shown once. Read-outs that look alike come from different tables or passages of the source.
Tests used:
[1] = tested on: 80S14 (p21-deficient) cells; experiment: Cytotoxicity assay using isogenic cell lines: IC50 in 80S14 (p21-deficient) cells, SRB; assay type: cell-based, human; conditions: SRB
Method in brief: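 80S14 (p21-deficient) cells seeded at 12,000 cells/well overnight, then exposed 5 days at 37 °C to serial dilutions (5 pM–50 μM or 170 pg/ml–10 μg/ml). TCA-fixed, sulforhodamine B-stained, absorbance at 560 nm; IC50 taken from cytotoxicity curves versus untreated controls.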

LoVo Colon cell line = experiment: Cytotoxicity assay using LoVo colon cell line, SRB; assay type: cell-based; conditions: 4 days incubation, SRB, read-out: Inhibition of LoVo
Method in brief: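 LoVo cells (4000/well, RPMI 1640 with 10% FBS, 37 °C, 7% CO2) seeded overnight, then exposed 4 days to serial dilutions spanning 5 pM-20 μM or 170 pg/ml-10 μg/ml. Survival by SRB staining; IC50 from curves relative to untreated controls.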

[2] = Homo sapiens, 120 h, 80S14 p21-deficient cells, 5 days incubation, read-out: IC50 for 80SI4
[3] = Homo sapiens, 96 h, LoVo colon cells
[4] = Homo sapiens, 120 h, 80S14 (p21-deficient) cells, 5 days, class symbols, read-out: IC50 for 80S14
[5] = Homo sapiens, 96 h, Cellular activity in LoVo cell

Compound | melting point | IC50 [1, 4] [nM] | IC50 (LoVo Colon cell line; [5]) [nM] | other results
CCCCNC(=O)Nc1cccc(-c2ccnc3c(C(=O)c4cccs4)cnn23)c1 [Example 8, N-butyl-N′-{3-[3-(thien-2-ylcarbonyl)pyrazolo[1,5-a]pyrimidin-7-yl]phenyl}urea] | 158 to 160 °C | – | – | IC50 [1, 2]: < 1000 nM; IC50 (LoVo Colon cell line; [3]): < 100 nM
Nc1cccc(-c2ccnc3c(C(=O)c4cccs4)cnn23)c1 [Example 262, [7-(3-Aminophenyl)pyrazolo[1,5-a]pyrimidin-3-yl]-2-thienyl-methanone] | 183 to 184 °C and 183 to 185 °C | 10000 to 50000 | – | –
O=C(c1cccs1)c1cnn2c(Cl)ccnc12 [Example 390, (7-Chloropyrazolo[1,5-a]pyrimidin-3-yl)(thien-2-yl)methanone] | 148 to 150 °C | 1000 to 10000 | 1000 to 20000 | –
CC(C)CC(=O)Nc1cccc(-c2ccnc3c(-c4cccc(N)c4)cnn23)c1 [Example 464, N-{3-[3-(3-Aminophenyl)pyrazolo[1,5-a]pyrimidin-7-yl]phenyl}-3-methylbutanamide] | 173 to 175 °C | 10000 to 50000 | 1000 to 20000 | –
O=C(c1ccco1)c1cnn2c(-c3cccc(-n4cccc4)c3)ccnc12 [Example 269, 2-Furanyl[7-[3-(1H-pyrrol-1-yl)phenyl]pyrazolo[1,5-a]pyrimidin-3-yl]-methanone] | 204 to 206 °C | 1000 to 10000 | – | –
COc1ccccc1/C=C/CNc1cccc(-c2ccnc3c(C(=O)c4cccs4)cnn23)c1 [Example 395, [7-(3-{[(2E)-3-(2-Methoxyphenyl)prop-2-enyl]amino}phenyl)pyrazolo[1,5-a]pyrimidin-3-yl](thien-2-yl)methanone] | 128 to 131 °C | 10000 to 50000 | 1000 to 20000 | –
Cc1cn(-c2cccc(-c3ccnc4c(C(=O)c5cccs5)cnn34)c2)cn1 [Example 247, [7-[3-(4-Methyl-1H-imidazol-1-yl)phenyl]-pyrazolo[1,5-a]pyrimidin-3-yl]-2-thienyl-methanone] | 232 to 234 °C | 1000 to 10000 | 100 to 1000 | –
O=C(c1cccs1)c1cnn2c(-c3cccs3)ccnc12 [Example 224, 2-Thienyl[7-(2-thienyl)pyrazolo[1,5-a]-pyrimidin-3-yl}-methanone] | 193 to 195 °C | 1000 to 10000 | – | –
CC(C)NC(=NC#N)Nc1cccc(-c2ccnc3c(C(=O)c4cccs4)cnn23)c1 [Example 414, N″-Cyano-N-isopropyl-N′-{3-[3-(thien-2-ylcarbonyl)pyrazolo[1,5-a]pyrimidin-7-yl]phenyl}guanidine] | 240 to 241 °C | < 1000 | – | –
O=C(c1cccs1)c1cnn2c(-c3cccc(-c4cc[nH]n4)c3)ccnc12 [Example 514, {7-[3-(1H-Pyrazol-3-yl)phenyl]pyrazolo[1,5-a]pyrimidin-3-yl}(thien-2-yl)methanone] | 129 °C | < 1000 | 100 to 1000 | –
O=C(Nc1cccc(-c2ccnc3c(C(=O)c4cccs4)cnn23)c1)OCCCN1CCS(=O)(=O)CC1 [Example 420, 3-(1,1-Dioxidothiomorpholin-4-yl)propyl 3-[3-(thien-2-ylcarbonyl)pyrazolo[1,5-a]pyrimidin-7-yl]phenylcarbamate] | 148 to 159 °C | < 1000 | 100 to 1000 | –
O=C(c1cccs1)c1cnn2c(-c3cccc(-n4ccnc4)c3)ccnc12 [Example 244, [7-[3-(1H-imidazol-1-yl)phenyl]pyrazolo-[1,5-a]pyrimidin-3-yl]-2-thienyl-methanone] | 242 to 244 °C | 1000 to 10000 | – | –
O=C(c1cccs1)c1cnn2c(-c3cccc(-c4ccn(CCN5CCCCC5)n4)c3)ccnc12 [Example 519, (7-{3-[1-(2-piperidin-1-ylethyl)-1H-pyrazol-3-yl]phenyl}pyrazolo[1,5-a]pyrimidin-3-yl)(thien-2-yl)methanone] | 62 °C | 1000 to 10000 | 100 to 1000 | –
CC(C)CCNc1cccc(-c2ccnc3c(C(=O)c4cccs4)cnn23)c1 [Example 350, {7-[3-(Isopentylamino)phenyl]pyrazolo[1,5-a]pyrimidin-3-yl}(thien-2-yl)methanone] | 75 to 77 °C | < 1000 | < 100 | –
O=C(Nc1cccc(-c2ccnc3c(C(=O)c4cccs4)cnn23)c1)c1ccccc1F [Example 358, 2-Fluoro-N-{3-[3-(thien-2-ylcarbonyl)pyrazolo[1,5-a]pyrimidin-7-yl]phenyl}benzamide] | 190 to 191 °C | < 1000 | < 100 | –
O=C(c1ccco1)c1cnn2c(-c3cccc(NC(=O)C4CC4)c3)ccnc12 [Example 235, N-[3-[3-(2-Furanylcarbonyl)-pyrazolo[1,5-a]pyrimidin-7-yl]phenyl}-cyclopropanecarboxamide] | 227 to 230 °C | < 1000 | – | –

Compound | melting point | IC50 [1, 4] [nM] | IC50 (LoVo Colon cell line; [5]) [nM] | other results
O=C(c1cccs1)c1cnn2c(-c3cccc(NC(=O)C4CC4)c3)ccnc12 [Example 249, N-[3-[3-(2-Thienylcarbonyl)pyrazolo[1,5-a]pyrimidin-7-yl]phenyl}-cyclopropanecarboxamide] | 192 to 194 °C | < 1000 | – | –
CC(C)NC(=N)Nc1cccc(-c2ccnc3c(C(=O)c4cccs4)cnn23)c1 [Example 411, N-Isopropyl-N′-{3-[3-(thien-2-ylcarbonyl)pyrazolo[1,5-a]pyrimidin-7-yl]phenyl}guanidine] | > 200 °C | 10000 to 50000 | – | –
O=C(Cc1ccncc1)Nc1cccc(-c2ccnc3c(C(=O)c4cccs4)cnn23)c1 [Example 427, 2-Pyridin-4-yl-N-{3-[3-(thien-2-ylcarbonyl)pyrazolo[1,5-a]pyrimidin-7-yl]phenyl}acetamide] | – | < 1000 | 1000 to 20000 | –
N-{3-[3-(thien-2-ylcarbonyl)pyrazolo[1,5-a]pyrimidin-7-ylphenyl}morpholne-4-carboxamide [Example 157] | – | – | – | IC50 ([1]; 80S14 p21-deficient cells, 5 days incubation, read-out: IC50 for 80SI4): 1000 to 10000 nM; IC50 (LoVo Colon cell line; LoVo colon cells): 100 to 1000 nM
CC(C)CC(=O)Nc1cncc(-c2ccnc3c(C(=O)c4cccs4)cnn23)c1 [Example 324, 3-Methyl-N-{5-[3-(2-thienylcarbonyl)pyrazolo[1,5-a]pyrimidin-7-yl]-3-pyridinyl}butanamide] | – | 1000 to 10000 | 100 to 1000 | –
N#CN=C(Nc1cccc(-c2ccnc3c(C(=O)c4cccs4)cnn23)c1)Oc1ccccc1 [Example 386, Phenyl N′-cyano-N-{3-[3-(thien-2-ylcarbonyl)pyrazolo[1,5-a]pyrimidin-7-yl]phenyl}imidocarbamate] | – | 1000 to 10000 | 1000 to 20000 | –
CCN(CC)c1cccc(-c2ccnc3c(C(=O)c4cccs4)cnn23)c1 [Example 394, {7-[3-(Diethylamino)phenyl]pyrazolo[1,5-a]pyrimidin-3-yl}(thien-2-yl)methanone] | – | 1000 to 10000 | 100 to 1000 | –
CCN(CC)C(=O)Nc1cccc(-c2ccnc3c(C(=O)c4cccs4)cnn23)c1 [Example 159, N,N-diethyl-N′-{3-[3-(thien-2-ylcarbonyl)pyrazolo[1,5-a]pyrimidin-7-yl]phenyl}urea] | – | – | – | IC50 [1, 2]: 1000 to 10000 nM; IC50 (LoVo Colon cell line; [3]): 100 to 1000 nM
Thienylcarbonyl)pyrazolo[1,5-a]pyrimidin-7-yl]phenyl}cyclobutanecarboxamide [Example 275] | – | – | – | IC50 ([1]; 80S14 (p21-deficient) cells, 5 days, class symbols, read-out: IC50 for 80S14): < 1000 nM; IC50 (LoVo Colon cell line; Cellular activity in LoVo cell): < 100 nM
O=C(Nc1cc(-c2ccnc3c(C(=O)c4cccs4)cnn23)ccc1Cl)c1ccccc1 [Example 312, N-{2-Chloro-5-[3-(2-thienylcarbonyl)pyrazolo[1,5-a]pyrimidin-7-yl]phenyl}benzamide] | – | < 1000 | < 100 | –
O=C(c1cccs1)c1cnn2c(-c3cccc(NCc4ccoc4)c3)ccnc12 [Example 369, (7-{3-[(3-Furylmethyl)amino]phenyl}pyrazolo[1,5-a]pyrimidin-3-yl)(thien-2-yl)methanone] | – | 1000 to 10000 | 100 to 1000 | –
Cn1cccc1C(=O)Nc1cccc(-c2ccnc3c(C(=O)c4cccs4)cnn23)c1 [Example 387, 1-Methyl-N-{3-[3-(thien-2-ylcarbonyl)pyrazolo[1,5-a]pyrimidin-7-yl]phenyl}-1H-pyrrole-2-carboxamide] | – | < 1000 | < 100 | –
CC(C)CC(=O)Nc1cccc(-c2ccnc3c(-c4ccc5[nH]ccc5c4)cnn23)c1 [Example 466, N-{3-[3-(1H-Indol-5-yl)pyrazolo[1,5-a]pyrimidin-7-yl]phenyl}-3-methylbutanamide] | – | 1000 to 10000 | < 100 | –
O=C(c1cccs1)c1cnn2c(-c3ccc(Cl)nc3)ccnc12 [Example 373, [7-(6-Chloropyridin-3-yl)pyrazolo[1,5-a]pyrimidin-3-yl](thien-2-yl)methanone] | – | 10000 to 50000 | 1000 to 20000 | –
Cc1cc(-c2cccc(NC(=O)C3CC3)c2)n2ncc(C(=O)c3cccs3)c2n1 [Example 276, N-{3-[5-Methyl-3-(2-thienylcarbonyl)pyrazolo[1,5-a]pyrimidin-7-yl]phenyl}cyclopropanecarboxamide] | – | < 1000 | < 100 | –

— patent US20060063784A1, “Method of using substituted pyrazolo [1,5-a] pyrimidines” (priority 2004, published 2006)
